Measured values: patent publication EP0450936A1, “Monoclonal antibody to avermectins” (MERCK & CO. INC., priority 1990, dated 1991)

Experiments:
[1] = tested on: monoclonal antibody 3A6-1 Mab; assay: competitive inhibition liquid phase RIA (monoclonal antibody specificity); assay type: binding, mouse; conditions: 50 ng inhibitor, 500 pg 3H-Avm B1a; for % ^3H-Tritium bound: antibody amount binding about 50% of label (Mab alone: 42)
Procedure: (§1) Specificity is determined by a competitive inhibition liquid phase RIA. The specificity is determined by contacting a known amount of labelled antigen (³H-Avm B1a) with constant amounts of other avermectins or ivermectin and then contacting this mixture with a constant amount of antibody specific for the labelled antigen. The concentration of antibody is an amount that is sufficient to bind about 50% of the labelled antigen employed in the assay.
as §1, with “B1a), 500 pg” for “B1a)”

[2] = detection of avermectin in mouse serum by competitive liquid phase RIA after intraperitoneal injection; assay type: in vivo, BALB/c mice; conditions: for Concentration per tube: serum at 1:10 dilution
Source text: Monoclonal antibody specifically reactive with a common epitope or common epitopes contained within the compounds of the avermectin family and derivatives thereof are used serologically to identify and quantitate avermectins, including ivermectin, in animal body fluids and cell-free extracts. Body fluids include, but are not limited to, blood, serum, plasma, milk, urine, cerebrospinal fluid and the like. Cell-free extracts as used herein are defined as the fluids derived from disrupted cells. The avermectins can be identified and the concentration determined by a variety of immunoassays or serological assays which include, but are not limited to: immunoradiometric assays, employing labelled antibodies, Miles and Hales, Nature 219: 186 […] or a sandwich variant according to Addison and Hales, Hormone. Meta. Res. 3: 59 (1971); enzyme immunoassays, employing competitive assays with antigen-enzyme conjugates according to the method of Van Weeman and Schours, F.E.B.S. Lett. 15: 232 (1971) or enzyme-labelled antibody assays according to the procedure of Envall and Perlman, Immunochem. 8: 871 (1971) or a variant of the enzyme-labelled antibody assay which employs detection by a second antibody according to the process of Hammarstrom et al., Proc. Natl. Acad. Sci. USA 72: 1528 (1975) or non-competitive sandwich (ELISA) methods, see Nakamura et al., in Handbood of Experimental Immunology, Vol. 1, Immunochemistry, D. M. Weir, ed. 4th Edition (1986), Blackwell Scientific Publications, Oxford, pp. 27.1-27.20; or any other assay which will determine the concentration or presence of avermectin. The preferred assay is a competitive inhibition liquid phase radioimmuno assay (RIA). The avermectin concentration in animal body fluids is determined by diluting the fluid in an appropriate assay buffer. An appropriate assay buffer may include, but is not limited to, buffered saline, phosphate buffer, phosphate buffered saline, Dulbecco's phosphate buffered saline, Dulbecco's calcium-and-magnesium-free buffered saline and Tris buffer containing about 0.1 % CHAPSO with Tris-CHAPSO being preferred. The labelled antigen (³H-Avm) is diluted to a concentration of about 200 pg to about 700 pg, with about 500 pg being preferred, and contacted with an anti-avermectin monoclonal antibody at a concentration that will bind about 25% to about 75% of the labelled antigen, with about 50% being preferred. To the labelled antigen-antibody mixture is added an appropriate concentration or dilution of the unknown or sample containing avermectin or the standard containing a known amount of avermectin. The reactants are incubated at about 4° C to about 30° C, with about 25° C being preferred, for about 30 minutes to about 4 h, with about 2.5 h being preferred. All dilutions are made in the assay buffer and all determinations are made in duplicate. Non-antibody-bound radioactive avermectin is removed from the reaction mixture by chromatographic, precipitation, immunoprecipitation or adsorption techniques with adsorption of the unbound antigen onto dextran-coated activated charcoal being preferred. The dextran-coated charcoal is prepared by suspending activated charcoal, USP, at about 3% (w/v) in about 10 mM phosphate buffer, pH about 7.5, containing about 0.25% (w/v) dextran, about 60,000 to about 90,000 average mol. wt., with about 70,000 average mol. wt. being preferred. The dextran-coated activated charcoal is washed and resuspended in assay buffer and stored at a concentration of about 3%. About 1 ml of the dextran-coated activated charcoal suspension (dilution predetermined) is added to each sample and the samples are incubated for about 10 min at about 4° C. The charcoal is pelleted by centrifugation at about 3500 rpm for about 15 min. The supernatant quid is collected and the radioactivity counted in a liquid scintillation counter. […]

Row | Compound | % Inhibition [1] [%] | % ^3H-Tritium bound [1] [%] | Concentration per tube ([2]; 15 min after 10 mg per Kg IP in sesame oil) [ng] | Concentration per tube ([2]; 30 min after 10 mg per Kg IP in sesame oil) [ng] | Concentration per tube ([2]; 60 min after 10 mg per Kg IP in sesame oil) [ng] | concentration at 0.25 h ([2]; mouse, serum, 10 mg/kg, 15 min after 10 mg per Kg IP in sesame oil, corrected for volume (50 µl) and dilution (1:10)) [ng/mL] | concentration at 0.5 h ([2]; mouse, serum, 10 mg/kg, 30 min after 10 mg per Kg IP in sesame oil, corrected for volume (50 µl) and dilution (1:10)) [ng/mL] | concentration at 1 h ([2]; mouse, serum, 10 mg/kg, 60 min after 10 mg per Kg IP in sesame oil, corrected for volume (50 µl) and dilution (1:10)) [ng/mL]
1 | CCC(C)[C@H]1O[C@]2(C=C[C@@H]1C)C[C@@H]1C[C@@H](C/C=C(\C)[C@@H](O[C@H]3C[C@H](OC)[C@@H](O[C@H]4C[C@H](OC)[C@@H](O)[C@H](C)O4)[C@H](C)O3)[C@@H](C)/C=C/C=C3\CO[C@@H]4[C@H](O)C(C)=C[C@@H](C(=O)O1)[C@]34O)O2 (stereo partly drawn) [B1a, avermectin B1a] | 53 | 20 | 2.4 | 13 | 42 | 480 | 2600 | 8400
2 | CC[C@H](C)[C@H]1O[C@@]2(C[C@@H]3C[C@@H](C/C=C(\C)[C@@H](O[C@H]4C[C@H](OC)[C@@H](O[C@H]5C[C@H](OC)[C@@H](O)[C@H](C)O5)[C@H](C)O4)[C@@H](C)/C=C/C=C4\CO[C@@H]5[C@H](O)C(C)=C[C@@H](C(=O)O3)[C@]45O)O2)C[C@H](O)[C@@H]1C [B2a, avermectin B2a] | 58 | 18 |  |  |  |  |  | 
3 | 22, 23-dihydroavermectin B₁ [Ivm] | 63 | 16 |  |  |  |  |  | 
